Patent publication EP4385979A1 (Grünenthal GmbH, priority 2022, dated 2024)

Target: T1, human NaV1.8 (Homo sapiens, UniProt Q9Y5Y9)
T1 construct: expressed in transfected cells; host or cells: HEK
Test: Electrophysiology: voltage-clamp recordings, whole-cell patch clamp on Qube384 automated platform
Format: cell-based
Conditions: HEK-NaV1.8 (NM 006514.1) with b3 recombinant cell line, multi hole plates, ambient room temperature, read-out: Potency category (human NaV1.8 IC50)
Description: Electrophysiology: Voltage-Clamp recordings
The following NaV1.8 recombinant cell line was used for recordings: HEK-NaV1.8 (NM 006514.1) with b3 (NM_018400.3).
Sodium currents were measured using the patch clamp technique in the whole-cell configuration using the Qube384 (Sophion A/S, Copenhagen, Denmark) automated voltage clamp platform. "Multi hole" plates were used for the cell line expressing NaV1.8 while "single hole" plates were used for the recombinant cell lines expressing the other subtypes. Appropriate filters (for minimum seal resistance and minimum current size) and series resistance compensation (for high quality sodium channel recordings) were applied. Data was collected at ambient room temperature.
The recording […] solution contained (in mM): NaCl 145 mM, KCl 4 mM, CaCl2 2 mM, MgCl2 1 mM, HEPES 10 mM, Glucose 10 mM, pH 7.4 (NaOH). The […] recording solution contained (in mM): CsF 120 mM, CsCl 20 mM, NaCl 10 mM, EGTA 10 mM, HEPES 10 mM, pH 7.2 (CsOH). Currents were recorded at 25 kHz sampling frequency and filtered at 5 kHz. Series resistance compensation was applied at 65%.
Vehicle (VEH) is the control condition where cells are exposed to 0.3 % DMSO without compound. All runs include VEH controls being exposed to the same voltage protocols to assess non-compound related phenomena such as run down and then used to isolate compound dependent effects on currents.
To check for state-dependence inhibition, the following voltage-sequence was applied every 20 seconds: From a resting membrane potential of-120 mV, the first test pulse (P1; 20 ms to -10 mV) was applied to check for channels in the Resting State followed by a brief recovery (20 ms to -120 mV), then holding the membrane voltage to V1/2 (4 seconds at voltage to obtain half the channel at Rest and half Inactivated) with a subsequent second test pulse (P2; 20 ms to -10 mV) to check for channels in the Inactivated State, followed by another brief recovery (20 ms to -120 mV) and a final third test pulse (P3; 20 ms to -10 mV) to check for recovered channels.
To check for frequency-dependent inhibition, a 10 Hz protocol and a 20 Hz protocol were applied; namely,
From a resting membrane potential of -120 mV, 40-pulses (10 ms to -10 mV) was applied at 10 Hz (at 100 ms between pulses) and then at 20 Hz (at 50 ms between pulses). Each parameter was recorded (P1, P2, P3, P40 from 10Hz and P40 from 20Hz) during a control period (lasting ~ 5 minutes) when establishing the baseline and during compound period (lasting ~ 12 minutes) when test compound (or vehicle) was applied. For each parameter, the value at the end of the compound period was normalized to the vehicle baseline; as follows Normalized Inhibition (NormCPD) = (CPD Valueend CPD period)/(VEH Valueend Control Period) [formula]
To adjust for any variance in the Na^+ current signal during the compound period (owing to cumulative inactivation independent of compound or shifts in biophysics over time), a dedicated segment of the recording wells in each 384 plate were dedicated to having only vehicle exposure. These vehicle-only recordings were used to correct for any apparent "run-up" or "run-down" in the experiment. Normalized Inhibition (NormVEH) = (VEH Valueend CPD period)/(VEH Valueend Control Period) [formula]
The adjusted inhibition was calculated as follows: % Inhibitioncorrected = 100 × (NormCPD −NormVEH)/(100−NormVEH) [formula]
Percent inhibition was determined and IC50 values were calculated using a 4 parameter logistic model within XLFit Software (IDBS, Boston MA): % Inhibitioncorrected = A + ((B−A))/((1 + (((x)/(C)))^D) [formula] where A and B are the maximal and minimum inhibition respectively, C is the IC50 concentration and D is the (Hill) slope.

T1 sequence (Q9Y5Y9 whole entry): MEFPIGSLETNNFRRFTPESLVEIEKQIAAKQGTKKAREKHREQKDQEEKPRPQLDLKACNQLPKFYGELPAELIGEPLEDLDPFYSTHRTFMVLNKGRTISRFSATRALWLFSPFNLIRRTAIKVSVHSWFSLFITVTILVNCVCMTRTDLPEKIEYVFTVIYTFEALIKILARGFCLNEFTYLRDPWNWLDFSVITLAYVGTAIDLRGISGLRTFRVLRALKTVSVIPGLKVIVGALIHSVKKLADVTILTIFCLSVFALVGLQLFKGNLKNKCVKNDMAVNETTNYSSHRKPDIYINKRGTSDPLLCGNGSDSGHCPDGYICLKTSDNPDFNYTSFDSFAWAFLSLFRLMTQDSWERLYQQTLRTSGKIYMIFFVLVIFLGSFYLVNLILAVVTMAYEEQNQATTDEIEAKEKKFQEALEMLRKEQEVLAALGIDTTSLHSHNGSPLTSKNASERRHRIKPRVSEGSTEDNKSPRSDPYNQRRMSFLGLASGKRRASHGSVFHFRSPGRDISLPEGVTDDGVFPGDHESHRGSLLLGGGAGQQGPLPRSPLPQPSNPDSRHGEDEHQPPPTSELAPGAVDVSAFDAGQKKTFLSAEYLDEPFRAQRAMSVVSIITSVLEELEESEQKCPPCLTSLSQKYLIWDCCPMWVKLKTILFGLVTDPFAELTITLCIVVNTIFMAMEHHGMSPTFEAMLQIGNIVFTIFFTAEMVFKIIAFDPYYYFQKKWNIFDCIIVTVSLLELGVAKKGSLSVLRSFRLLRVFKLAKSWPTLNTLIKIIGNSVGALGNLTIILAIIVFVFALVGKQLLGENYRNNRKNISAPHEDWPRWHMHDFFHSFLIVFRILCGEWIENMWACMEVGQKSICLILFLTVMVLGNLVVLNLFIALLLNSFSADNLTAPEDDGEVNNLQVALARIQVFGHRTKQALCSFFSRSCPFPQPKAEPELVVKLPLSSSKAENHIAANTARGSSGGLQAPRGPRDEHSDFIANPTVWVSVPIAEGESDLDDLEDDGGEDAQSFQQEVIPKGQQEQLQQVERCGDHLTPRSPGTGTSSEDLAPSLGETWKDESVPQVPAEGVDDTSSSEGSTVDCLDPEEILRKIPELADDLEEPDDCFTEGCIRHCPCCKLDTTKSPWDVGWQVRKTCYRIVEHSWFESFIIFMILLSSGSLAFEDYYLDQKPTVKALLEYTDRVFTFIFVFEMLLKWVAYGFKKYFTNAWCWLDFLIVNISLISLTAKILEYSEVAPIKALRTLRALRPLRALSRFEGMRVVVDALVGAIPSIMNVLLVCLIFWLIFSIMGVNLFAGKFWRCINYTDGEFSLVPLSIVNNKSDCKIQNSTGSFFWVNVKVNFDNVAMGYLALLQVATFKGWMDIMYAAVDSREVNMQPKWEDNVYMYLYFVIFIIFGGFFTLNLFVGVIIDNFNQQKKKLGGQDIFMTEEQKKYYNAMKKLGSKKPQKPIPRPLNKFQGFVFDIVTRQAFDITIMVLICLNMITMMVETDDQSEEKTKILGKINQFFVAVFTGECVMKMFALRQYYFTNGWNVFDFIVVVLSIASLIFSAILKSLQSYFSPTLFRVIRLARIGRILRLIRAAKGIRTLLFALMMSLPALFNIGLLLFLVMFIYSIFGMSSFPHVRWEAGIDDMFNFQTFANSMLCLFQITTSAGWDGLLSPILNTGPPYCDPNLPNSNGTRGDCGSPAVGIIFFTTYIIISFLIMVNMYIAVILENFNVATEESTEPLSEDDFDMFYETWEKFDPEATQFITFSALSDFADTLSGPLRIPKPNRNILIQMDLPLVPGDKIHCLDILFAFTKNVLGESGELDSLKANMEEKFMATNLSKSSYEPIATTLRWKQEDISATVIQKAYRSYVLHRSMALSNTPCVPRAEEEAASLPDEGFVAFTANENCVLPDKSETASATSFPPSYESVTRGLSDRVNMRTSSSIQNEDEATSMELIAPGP

Row | SMILES | IC50
1 | NS(=O)(=O)c1cccc(NC(=O)c2c(C(F)(F)F)cnn2CC23CCC(C2)C3)c1 [Example 35, 1-(bicyclo[2.1.1]hexan-1-ylmethyl)-N-(3-sulfamoylphenyl)-4-(trifluoromethyl)-1H-pyrazole-5-carboxamide] | ≤ 100 nM
2 | NC(=O)c1cc(NC(=O)c2c(C(F)(F)F)cnn2CC23CC(CO2)C3)ccc1F [Example 37, 1-((2-oxabicyclo[2.1.1]hexan-1-yl)methyl)-N-(3-carbamoyl-4-fluorophenyl)-4-(trifluoromethyl)-1H-pyrazole-5-carboxamide] | 1000 to 10000 nM
3 | CS(=O)(=O)c1cc(NC(=O)c2c(C(F)(F)F)c(C3CC3)nn2CC23CC(C(F)(F)F)(C2)C3)ccn1 [Example 28, 3-cyclopropyl-N-(2-(methylsulfonyl)pyridin-4-yl)-4-(trifluoromethyl)-1-((3-(trifluoromethyl)bicyclo[1.1.1]pentan-1yl)methyl)-1H-pyrazole-5-carboxamide] | ≤ 100 nM
4 | CS(=O)(=O)n1cc(NC(=O)c2c(C(F)(F)F)cnn2CC23CCC(C2)C3)cn1 [Example 49, 1-(bicyclo[2.1.1]hexan-1ylmethyl)-N-(1-(methylsulfonyl)-1H-pyrazol-4-yl)-4-(trifluoromethyl)-1H-pyrazole-5-carboxamide] | 100 to 1000 nM
5 | NC(=O)c1cc(NC(=O)c2c(C(F)(F)F)cnn2CC23CCC(C2)C3)ccc1F [Example 42, 1-(bicyclo[2.1.1]hexan-1-ylmethyl)-N-(3-carbamoyl-4-fluorophenyl)-4-(trifluoromethyl)-1H-pyrazole-5-carboxamide] | ≤ 100 nM
6 | CS(=O)(=O)c1cc(NC(=O)c2c(C(F)(F)F)c(C3CC3)nn2CC23CC(CO2)C3)ccn1 [Example 24, 1-((2-oxabicyclo[2.1.1]hexan-1-yl)methyl)-3-cyclopropyl-N-(2-(methylsulfonyl)pyridin-4-yl)-4-(trifluoromethyl)-1H-pyrazole-5-carboxamide] | 100 to 1000 nM
7 | Cc1nn(CC23CC(CO2)C3)c(C(=O)Nc2cccc(S(N)(=O)=O)c2)c1C(F)(F)F [Example 33, 1-((2-oxabicyclo [2.1.1]hexan-1-yl)methyl)-3-methyl-N-(3-sulfamoylphenyl)-4-(trifluoromethyl)-1H-pyrazole-5-carboxamide] | 1000 to 10000 nM
8 | COC12CC(Cn3nc(C4CC4)c(C(F)(F)F)c3C(=O)Nc3ccnc(S(C)(=O)=O)c3)(C1)C2 [Example 20] | 100 to 1000 nM
9 | Cc1nn(CC23CC(C2)C3)c(C(=O)Nc2ccc(F)c(C(N)=O)c2)c1C(F)(F)F [Example 40, 1-(bicyclo[1.1.1]pentan-1-ylmethyl)-N-(3-carbamoyl-4-fluorophenyl)-3-methyl-4-(trifluoromethyl)-1H-pyrazole-5-carboxamide] | 100 to 1000 nM

More lines, now with the values ahead:

Row | IC50 | SMILES
10 | ≤ 100 nM | CC12COC(Cn3nc(C4CC4)c(C(F)(F)F)c3C(=O)Nc3ccnc(C(N)=O)c3)(C1)C2 [Example 16, 4-(3-cyclopropyl-1-((4-methyl-2-oxabicyclo[2.1.1]hexan-1-yl)methyl)-4-(trifluoromethyl)-1H-pyrazole-5-carboxamido)picolinamide]
11 | 100 to 1000 nM | COC12CC(Cn3nc(C4CC4)c(C(F)(F)F)c3C(=O)Nc3ccnc(C(N)=O)c3)(C1)C2 [Example 14, 4-(3-cyclopropyl-1-((3-methoxybicyclo[1.1.1]pentan-1-yl)methyl)-4-(trifluoromethyl)-1H-pyrazole-5-carboxamido)picolinamide]
12 | ≤ 100 nM | Cc1c(C(C)(F)F)nn(CC2(C)CC(F)(F)CC2C)c1C(=O)Nc1ccnc(S(N)(=O)=O)c1 (single isomer, unassigned) [Example 43a, 1-((4,4-difluoro-1,2-dimethylcyclopentyl)methyl)-3-(1,1-difluoroethyl)-4-methyl-N-(2-sulfamoylpyridin-4-yl)-1H-pyrazole-5-carboxamide]
13 | 1000 to 10000 nM | CC1(C)CC(Cn2nc(C3CC3)c(C(F)(F)F)c2C(=O)Nc2ccnc(S(C)(=O)=O)c2)O1 (single isomer, unassigned) [Example 22a, 3-cyclopropyl-1-((4,4-dimethyloxetan-2-yl)methyl)-N-(2-(methylsulfonyl)pyridin-4-yl)-4-(trifluoromethyl)-1H-pyrazole-5-carboxamide]
14 | ≤ 100 nM | CS(=O)(=O)c1cc(NC(=O)c2c(C(F)(F)F)c(C3CC3)nn2CC23CC(F)(C2)C3)ccn1 [Example 21, 3-cyclopropyl-1-((3-fluorobicyclo [1.1.1]pentan-1-yl)methyl)-N-(2-(methylsulfonyl)pyridin-4-yl)-4-(trifluoromethyl)-1H-pyrazole-5-carboxamide]
15 | ≤ 100 nM | NC(=O)c1cc(NC(=O)c2c(C(F)(F)F)c(C3CC3)nn2CC23CC(F)(C2)C3)ccn1 [Example 15, 4-(3-cyclopropyl-1-((3-fluorobicyclo [1.1.1]pentan-1-yl)methyl)-4-(trifluoromethyl)-1H-pyrazole-5-carboxamido)picolinamide]
16 | ≤ 100 nM | Cc1nn(CC23CCC(C2)C3)c(C(=O)Nc2ccc(F)c(C(N)=O)c2)c1C(F)(F)F [Example 36, 1-(bicyclo[2.1.1]hexan-1-ylmethyl)-N-(3-carbamoyl-4-fluorophenyl)-3-methyl-4-(trifluoromethyl)-1H-pyrazole-5-carboxamide]
17 | ≤ 100 nM | Cc1nn(CC23CC(C(F)(F)F)(C2)C3)c(C(=O)Nc2ccnc(C(N)=O)c2)c1C(F)(F)F [Example 18, 4-(3-methyl-4-(trifluoromethyl)-1-((3-(trifluoromethyl)bicyclo [1.1.1]pentan-1-yl)methyl)-1H-pyrazole-5-carboxamido)picolinamide]
18 | ≤ 100 nM | Cc1c(C(C)(F)F)nn(CC23CC(C(F)(F)F)(C2)C3)c1C(=O)Nc1ccnc(C(N)=O)c1 [Example 4]
19 | ≤ 100 nM | Cc1c(C(C)(F)F)nn(CC2(C)CC(F)(F)CC2C)c1C(=O)Nc1ccnc(S(N)(=O)=O)c1 (single isomer, unassigned) [Example 43b, 1-((4,4-difluoro-1,2-dimethylcyclopentyl)methyl)-3-(1,1-difluoroethyl)-4-methyl-N-(2-sulfamoylpyridin-4-yl)-1H-pyrazole-5-carboxamide]
20 | 100 to 1000 nM | Cc1nn(CC23CC(C(F)(F)F)(C2)C3)c(C(=O)Nc2ccnc(S(C)(=O)=O)c2)c1C(F)(F)F [Example 26, 3-methyl-N-(2-(methylsulfonyl)pyridin-4-yl)-4-(trifluoromethyl)-1-((3-(trifluoromethyl)bicyclo[1.1.1]pentan-1yl)methyl)-1H-pyrazole-5-carboxamide]
21 | ≤ 100 nM | Cc1c(C(C)(F)F)nn(CC2(C)CC(F)(F)CC2C)c1C(=O)Nc1ccnc(C(N)=O)c1 (single isomer, unassigned) [Example 10d, 4-(1-((4,4-difluoro-1,2-dimethylcyclopentyl)methyl)-3-(1,1-difluoroethyl)-4-methyl-1H-pyrazole-5-carboxamido)picolinamide]
22 | ≤ 100 nM | NC(=O)c1cc(NC(=O)c2c(C(F)(F)F)c(C3CC3)nn2CC23CC(C(F)(F)F)(C2)C3)ccn1 [Example 9, 4-(3-cyclopropyl-4-(trifluoromethyl)-1-((3-(trifluoromethyl)bicyclo [1.1.1]pentan-1-yl)methyl)-1H-pyrazole-5-carboxamido)picolinamide]
23 | 100 to 1000 nM | Cc1nn(CC23CC(F)(C2)C3)c(C(=O)Nc2ccnc(C(N)=O)c2)c1C(F)(F)F [Example 1, 4-(1-((3-fluorobicyclo[1.1.1]pentan-1-yl)methyl)-3-methyl-4-(trifluoromethyl)-1H-pyrazole-5-carboxamido)picolinamide]
